Results taken from patent EP4722203A1, “3,4-DIHYDROPHTHALAZIN-1(2H)-ONE DERIVATIVE, AND PREPARATION METHOD THEREFOR AND USE THEREOF” (Academy of Military Medical Sciences, priority 2023, dated 2024).

Assays:
[1] = tested on: human multiple myeloma NCI-H929 xenograft tumors; assay: In vivo activity in combination with dexamethasone against NCI-H929 transplanted tumor; design: species or system NOD/SCID mice; details: each drug 3 mg/kg, QD; for Tumor inhibition rate TGI (%) / Average volume (mm^3) (Day 10) / Initial volume (mm^3): oral gavage, alone or combined; for Tumor inhibition rate TGI (%): 10 consecutive days; for Initial volume (mm^3): baseline
Procedure: In this example, human multiple myeloma NCI-H929 cell line was selected as the cell model to determine the inhibitory effects of compound and dexamethasone alone, as well as combination thereof on the growth of NOD/SCID mouse transplanted tumors of NCI-H929 tumor cells. The evaluation methods and results are described below.
(§1) Human multiple myeloma NCI-H929 cells were routinely cultured in RPMI1640 containing 10% fetal bovine serum at 37°C in a 5% CO2 incubator. After three passages in vitro, when the cells reached over 80% confluence and the required confluence rate, the cells were digested and harvested. After washing with PBS, the cells were counted and the cell concentration was adjusted to approximately 5 × 10^7 cells/mL. The cells were then placed in 4 mL centrifuge tubes on ice for later use.
(§2) Female NOD/SCID mice aged 4-5 weeks were selected and subcutaneously inoculated with NCI-H929 cells ectopically. The mice were held in a lateral position, the forelimb axilla was disinfected with 75% alcohol, and 100 µL of the cell suspension was injected subcutaneously into the axilla using a 1 mL syringe ([…]/100 µL).
After the tumors grew to 90-150 mm^3, the animals were randomly divided into groups, 8 mice in each group, and administered according to different administration methods as follows: • Model control group: Administered with the same volume of Vehicle (DMSO: 0.5% sodium carboxymethyl cellulose: distilled water = 1:1:8) daily by gavage; • Test group 1: administered with dexamethasone (Dex) solution at 3 mg/kg (mouse body weight) daily by gavage; • Test group 2: administered with I-4 solution at 3 mg/kg (mouse body weight) daily by gavage; • Test group 3: administered with I-8 solution at 3 mg/kg (mouse body weight) daily by gavage; • Test group 4: administered with dexamethasone at 3 mg/kg (mouse body weight) and 1-4 solution at 3 mg/kg (mouse body weight) daily by gavage; • Test group 5: administered with dexamethasone at 3 mg/kg (mouse body weight) and I-8 solution at 3 mg/kg (mouse body weight) daily by gavage;
(§3) The route of administration was oral gavage, and the administration frequency was once daily, for 10 consecutive days. The first day of administration was defined as Day 1 of the experiment. Tumor volume changes in mice were measured and recorded every two days. Tumor volume was measured using a vernier caliper, in which the major axis (a) and minor axis (b) of the tumor were measured, and the tumor volume was calculated as tumor volume V (mm^3) = a x b^2/2. After the experiment, the mice were dissected and the tumor weight was measured. The data were entered and statistically analyzed using GraphPad Prism 6 software. The data are expressed as mean ± SEM (Standard Error of Mean), and one-way ANOVA was used. P ≤ 0.05 was considered statistically significant.

[2] = tested on: human multiple myeloma NCI-H929 xenograft tumors; assay: In vivo antitumor activity against NCI-H929 transplanted tumors; design: species or system NOD/SCID mice; details: QD; for growth of NCI-H929 transplanted tumors (in words): 3 mg/kg and 10 mg/kg; for Tumor inhibition rate TGI (%) / Average volume (mm^3) (Day 10) / Initial volume (mm^3): oral gavage; for Tumor inhibition rate TGI (%): 10 consecutive days; for Initial volume (mm^3): baseline
Procedure: In this example, the human multiple myeloma NCI-H929 cell line was used as the cell model. The inhibitory effects of compounds on the growth of NOD/SCID mouse transplanted tumors of NCI-H929 tumor cells were determined. The evaluation methods and results are described below.
as §1, §2
After the tumors grew to 90-150 mm^3, the animals were randomly divided into groups, 8 mice in each group, and administered according to different administration methods as follows: • Model control group: Administered with the same volume of Vehicle (DMSO: 0.5% sodium carboxymethyl cellulose: distilled water = 1:1:8) daily by gavage; • Control drug group 1: administered with pomalidomide solution at 10 mg/kg (mouse body weight) daily by gavage; • Control drug group 2: administered with CC-220 solution at 3 mg/kg (mouse body weight) daily by gavage; • Control drug group 3: administered with CC-220 solution at 10 mg/kg (mouse body weight) daily by gavage; • Experimental compound group 4: administered with compound I-4 solution at 3 mg/kg (mouse body weight) daily by gavage; • Experimental compound group 5: administered with compound I-4 solution at 10 mg/kg (mouse body weight) daily by gavage; • Experimental compound group 6: administered with compound I-8 solution at 3 mg/kg (mouse body weight) daily by gavage; • Experimental compound group 7: administered with compound I-8 solution at 10 mg/kg (mouse body weight) daily by gavage;
as §3

RPMI-8226 cells = assay: Antiproliferative activity, CCK-8 assay; assay type: cell-based; details: Homo sapiens, 144 hours incubation, CCK-8, absorbance at 450 nm

CN1Cc2c(N)cccc2C(=O)N1C1CCC(=O)NC1=O (stereo not drawn) [I-4, 3-(5-amino-3-methyl-1-oxo-3,4-dihydrophthalazin-2(1H)-yl)piperidin-2,6-dione]
growth of NCI-H929 transplanted tumors (in words) [1]: effectively inhibit the growth
Tumor inhibition rate TGI (%) [1]: 68.03%
Average volume (mm^3) (Day 10) [1]: 689.9 mm^3
Initial volume (mm^3) [1]: 183.9 mm^3
growth of NCI-H929 transplanted tumors (in words) [2]: significantly inhibited the growth
Tumor inhibition rate TGI (%) ([2]; 3 mg/kg): 66.53%
Average volume (mm^3) (Day 10) ([2]; 3 mg/kg): 843.1 mm^3
Initial volume (mm^3) ([2]; 3 mg/kg): 191.6 mm^3
Tumor inhibition rate TGI (%) ([2]; 10 mg/kg): 92.82%
Average volume (mm^3) (Day 10) ([2]; 10 mg/kg): 344.5 mm^3
Initial volume (mm^3) ([2]; 10 mg/kg): 204.8 mm^3

CN1Cc2c(NCc3ccc(CN4CCN(c5ccc(C#N)c(F)c5)CC4)cc3)cccc2C(=O)N1C1CCC(=O)NC1=O (stereo not drawn) [I-8]
IC50 (RPMI-8226 cells): 0.308 µM
growth of NCI-H929 transplanted tumors (in words) [1]: effectively inhibit the growth
Tumor inhibition rate TGI (%) [1]: 82.64%
Average volume (mm^3) (Day 10) [1]: 458.1 mm^3
Initial volume (mm^3) [1]: 183.3 mm^3
growth of NCI-H929 transplanted tumors (in words) [2]: significantly inhibited the growth
Tumor inhibition rate TGI (%) ([2]; 3 mg/kg): 84.25%
Average volume (mm^3) (Day 10) ([2]; 3 mg/kg): 500.1 mm^3
Initial volume (mm^3) ([2]; 3 mg/kg): 193.5 mm^3
Tumor inhibition rate TGI (%) ([2]; 10 mg/kg): 100.72%
Average volume (mm^3) (Day 10) ([2]; 10 mg/kg): 197.3 mm^3
Initial volume (mm^3) ([2]; 10 mg/kg): 211.3 mm^3

Nc1cccc2c1C(=O)N(C1CCC(=O)NC1=O)C2=O (stereo not drawn) [Pomalidomide, reference compound]
IC50 (RPMI-8226 cells): 0.729 µM
Tumor inhibition rate TGI (%) ([2]; 10 mg/kg): 80.09%
Average volume (mm^3) (Day 10) ([2]; 10 mg/kg): 573.1 mm^3
Initial volume (mm^3) ([2]; 10 mg/kg): 185.6 mm^3
